# Measurements reported in patent publication US7217702B2, “Selective antagonists of A2A adenosine receptors” (Adenosine Therapeutics, LLC, priority 2004, dated 2007).
# Tests used:
# [1] = biological target: T1, A1AR (Homo sapiens, UniProt P30542); test: Binding affinity of A2AAR ligands, radioligand displacement at A1AR; conditions: for selectivity ratio vs. the A2AAR, A1AR: number in parentheses
# T1 sequence (P30542 1-326): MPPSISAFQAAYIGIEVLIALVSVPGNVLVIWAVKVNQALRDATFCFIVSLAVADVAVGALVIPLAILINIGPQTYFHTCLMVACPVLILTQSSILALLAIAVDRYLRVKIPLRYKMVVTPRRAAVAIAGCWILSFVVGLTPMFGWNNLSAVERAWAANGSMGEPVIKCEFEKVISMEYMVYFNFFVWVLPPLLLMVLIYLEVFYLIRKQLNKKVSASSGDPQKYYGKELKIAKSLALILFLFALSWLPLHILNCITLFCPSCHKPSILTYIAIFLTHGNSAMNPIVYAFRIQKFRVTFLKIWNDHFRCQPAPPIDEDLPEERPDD
# [2] = biological target: A2AAR (Homo sapiens, UniProt P29274); test: Binding affinity of A2AAR ligands, radioligand displacement at A2AAR
# [3] = biological target: T2, A2BAR (Homo sapiens, UniProt P29275); test: Binding affinity of A2AAR ligands, radioligand displacement at A2BAR; conditions: for selectivity ratio vs. the A2AAR, A2BAR: number in parentheses; for displacement of radioligand, A2BAR: 1 μM candidate ligand
# T2 sequence (P29275 1-332): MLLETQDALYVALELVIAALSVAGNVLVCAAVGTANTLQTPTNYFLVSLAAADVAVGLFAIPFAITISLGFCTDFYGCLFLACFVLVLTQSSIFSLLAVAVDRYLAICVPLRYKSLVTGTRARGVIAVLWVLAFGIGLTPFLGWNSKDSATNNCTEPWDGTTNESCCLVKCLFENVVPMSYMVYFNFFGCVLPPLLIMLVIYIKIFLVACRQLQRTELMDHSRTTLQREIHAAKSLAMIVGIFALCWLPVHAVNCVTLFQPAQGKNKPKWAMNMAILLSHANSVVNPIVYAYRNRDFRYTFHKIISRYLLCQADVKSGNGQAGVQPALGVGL
# [4] = biological target: T3, A3AR (Homo sapiens, UniProt P0DMS8); test: Binding affinity of A2AAR ligands, radioligand displacement at A3AR; conditions: for selectivity ratio vs. the A2AAR, A3AR: number in parentheses; for displacement of radioligand, A3AR: 1 μM candidate ligand
# T3 sequence (P0DMS8 1-318): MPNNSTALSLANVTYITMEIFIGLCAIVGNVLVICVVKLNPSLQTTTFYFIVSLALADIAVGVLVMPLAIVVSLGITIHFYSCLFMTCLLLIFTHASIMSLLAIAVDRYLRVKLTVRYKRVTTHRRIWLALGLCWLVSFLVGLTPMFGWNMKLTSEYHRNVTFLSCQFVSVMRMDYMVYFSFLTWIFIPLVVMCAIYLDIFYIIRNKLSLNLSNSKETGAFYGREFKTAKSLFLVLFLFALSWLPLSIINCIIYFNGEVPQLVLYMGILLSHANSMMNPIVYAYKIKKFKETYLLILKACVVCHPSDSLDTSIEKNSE
# [5] = biological target: A2A adenosine receptor (Homo sapiens, UniProt P29274); test: Human Ki of the compound tables; assay type: binding; conditions: receptor subtype not given
# [6] = tested on: C57BL/6 mice; test: Motor stimulation in normal mice, locomotor activity cage system; assay type: in vivo, mouse
# Description: The ability of compounds to stimulate motor activity in normal mice was measured using a simple, computer-assisted locomotor activity cage system. C57BL/6 mice (n═6–8 purchased from the Jackson's lab) were habituated for the testing environment for 120 minute prior to drug treatment. The test compounds were dissolved in vehicle (10% DMSO, 10% castrol oil EL-620 and 80% saline). The drug was administrated intraperitoneally at a dose of 15 mg/kg, and locomotor activity was recorded for 2 hours before and after drug administration.
# [7] = tested on: A2A receptor KO and WT mice; test: Motor stimulant effect in A2A receptor KO mice and WT littermates; assay type: in vivo, mouse; conditions: 15 mg/kg, FIG. 2
# Description: We validated that ATL-2 acts on the A2A receptor to stimulate motor activity by using A2AR KO mice (in both mixed (129sv X C57BL/6) as well as congenic (C57BL/6 genetic background) developed over the last several years. We evaluated the motor stimulant effect of ATL-2 in A2A receptor KO and their WT littermates. WT and A2A KO mice (n=4) were habituated for 60 minutes and treated with ATL-2 (15 mg/kg) and recorded for motor activity for 120 minutes.
# [8] = tested on: normal and dopamine-depleted mice; test: Dose response of motor activity in normal and MPTP dopamine-depleted mice; assay type: in vivo, mouse; conditions: i.p.
# Description: In the set of experiments, we perform a dose response study of ATL-2 in stimulating motor activity in normal mice, and then we further extend this to dopamine-depleted mice. Adult male mice are habituated for 120 minutes and treated (i.p.) with saline or varying doses of compound, and their locomotor activity recorded for 120 minutes.
# In a second set of experiments, we utilize the MPTP treatment paradigm to create animal model of PD by severely depleting dopamine in mice. We use a single MPTP treatment paradigm (40 mg/kg) which has been reproducibly reducing dopamine to 30–40% of normal dopamine contents in striatum in our previous studies.^35,74 Adult male mice (˜[…]) are treated with single dose of MPTP (40 mg/kg). Thirty minutes after the MPTP treatment, mice are injected (i.p.) with vehicle or compounds of the invention at the same doses discussed above. Their motor activity is recorded for 180 minutes.
# [9] = tested on: dopamine-depleted mice; test: Synergy with L-dopa on locomotor activity in MPTP dopamine-depleted mice; assay type: in vivo, mouse; conditions: MPTP-treated mice
# Description: We further tested the ability of these compounds to synergistically enhance motor function in conjunction with L-dopa, the standard therapy. Mice are injected (i.p.) with MPTP at a dose (1–2.5 mg/kg) that markedly decreases striatal dopamine levels. […] Locomotor behavior is monitored for 120 min before and after the treatment.
# [10] = tested on: unilateral 6-OHDA-lesioned mice; test: L-dopa-induced locomotor sensitization in unilateral 6-OHDA-lesioned mice; assay type: in vivo, mouse; conditions: 3 or 10 mg/kg i.p. before daily L-dopa
# Description: The ability of ATL-2 to modify the development of L-dopa-induced locomotor sensitization in hemiparkinsonian mice are tested. C57BL/6 mice (from the Jackson's lab, Bar Harbor, […].) are lesioned with 6-OHDA by unilateral intrastriatal using a standard lesioning protocol. Seven days after the 6-OHDA (or MPP^+) treatment, mice are injected with L-dopa (2.0 mg/kg, daily) for 14 days. Five min prior to each L-dopa treatment, the mice receive intraperitoneal pretreatment with: (1) vehicle, (2) ATL-2 (3 mg/kg) or (3) ATL-2 (10 mg/kg). […] Rotational responses to L-dopa are recorded on the days 1, 3, 5, 7, 10 and 15. Following the behavioral measurement, mice may be sacrificed and their brains sectioned through striatum and substantia nigra. Striatal enkephalin mRNA levels are determined by in situ hybridization histochemistry. Similarly, DAT (^3H-mazindol) binding is measured by receptor autoradiography to ensure successful and equivalent lesions among different experimental groups.
# [11] = tested on: rats; conditions: cited from earlier work
# [12] = tested on: PD patients; conditions: 20–80 mg/day; cited from earlier work
# [13] = cited from earlier work
# [14] = in vivo; cited from earlier work
# [15] = normal C57BL/6 mice, 15 mg/kg intraperitoneally, FIG. 1
# Sequence of A2AAR (P29274 whole entry): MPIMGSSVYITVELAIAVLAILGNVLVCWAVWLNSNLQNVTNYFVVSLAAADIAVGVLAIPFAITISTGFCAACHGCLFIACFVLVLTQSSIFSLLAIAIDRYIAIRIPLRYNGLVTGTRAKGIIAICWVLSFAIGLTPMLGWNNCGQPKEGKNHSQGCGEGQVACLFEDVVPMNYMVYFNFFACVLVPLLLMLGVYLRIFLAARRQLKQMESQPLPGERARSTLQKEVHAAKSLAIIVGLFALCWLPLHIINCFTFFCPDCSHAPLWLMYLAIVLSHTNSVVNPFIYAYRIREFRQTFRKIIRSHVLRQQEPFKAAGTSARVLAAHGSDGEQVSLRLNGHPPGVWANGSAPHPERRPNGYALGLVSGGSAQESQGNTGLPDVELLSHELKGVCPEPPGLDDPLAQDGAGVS
# Sequence of A2A adenosine receptor (P29274 whole entry): as above
smiles,measurement,setting,value
"C#CCn1cnc2c(N)nc(C#C[C@]3(O)CCC[C@@H](C)C3)nc21 [Compound 2, 2-{2-[1(S)-Hydroxy-3(R)-methyl-1-cyclohexyl]ethyn-1-yl}-9-propargyladenine]",Ki,[1],4.6 nM
same,"selectivity ratio vs. the A2AAR, A1AR",[1],5
same,Ki,[2],0.95 nM
same,Ki,[3],50 nM
same,Ki,[4],599 nM
same,"selectivity ratio vs. the A2AAR, A3AR",[4],630
same,Ki,[5],< 100 nM
same,motor stimulant effect compared with other A2AR antagonists such as SCH58261 and KW6002,[6]; from previous experience with other A2AR antagonists,comparable or stronger
same,duration of motor stimulation,[6]; [15],about 60 minutes
same,motor stimulation (locomotor activity),[6]; [15],strong motor stimulation
same,time to peak of motor stimulation,[6]; [15],≤ 20 min
same,motor stimulation in A2A receptor KO mice,[7]; A2A receptor KO mice,absent
same,motor activity in WT mice,[7]; WT littermates,produced motor activity
same,"motor function, dose dependence",[8],Enhances Motor Function in a Dose-dependent Manner
same,shift of the dose-response curve with L-dopa,[9],left-shift
same,effect with L-dopa in stimulating locomotor activity,[9]; L-dopa 25 mg/kg + ATL-2 0.3-10 mg/kg,synergistic effect
same,development of L-dopa-induced locomotor sensitization,[10],delays or prevent the development of locomotor sensitization
"C[C@@H]1CCC[C@@](O)(C#Cc2nc(N)c3ncn(C4CCCC4)c3n2)C1 [Compound 3, 9-Cyclopentyl-2-{2-[1(S)-hydroxy-3(R)-methyl-1-cyclohexyl]ethyn-1-yl}adenine]",Ki,[1],368 nM
same,"selectivity ratio vs. the A2AAR, A1AR",[1],37
same,Ki,[2],10 nM
same,Ki,[3],357 nM
same,"selectivity ratio vs. the A2AAR, A2BAR",[3],36
same,Ki,[4],633 nM
same,"selectivity ratio vs. the A2AAR, A3AR",[4],63
same,Ki,[5],< 100 nM
"CCC(CC)Nc1nc(C#C[C@]2(O)CCC[C@@H](C)C2)nc2c1ncn2C [Compound 11, 2-{2-[1(S)-Hydroxy-3(R)-methyl-1-cyclohexyl]ethyn-1-yl}-9-methyl-N6-(3-pentyl)adenine]",Ki,[1],172 nM
same,"selectivity ratio vs. the A2AAR, A1AR",[1],1.3
same,Ki,[2],137 nM
same,"displacement of radioligand, A2BAR",[3],20%
same,"displacement of radioligand, A3AR",[4],30%
same,Ki,[5],< 500 nM
"C#CCn1cnc2c(NC(CC)CC)nc(C#C[C@]3(O)CCC[C@@H](C)C3)nc21 [Compound 17, 2-{2-[1(S)-Hydroxy-3(R)-methyl-1-cyclohexyl]ethyn-1-yl}-N6-(3-pentyl)-9-(propargyl)adenine]",Ki,[1],11 nM
same,"selectivity ratio vs. the A2AAR, A1AR",[1],2
same,Ki,[2],5 nM
same,Ki,[3],147 nM
same,"selectivity ratio vs. the A2AAR, A2BAR",[3],29
same,Ki,[4],188 nM
same,"selectivity ratio vs. the A2AAR, A3AR",[4],38
same,Ki,[5],< 100 nM
"CCCCCCn1cnc2c(N)nc(C#CC3(O)C4CC5CC(C4)CC3C5)nc21 (stereo not shown) [Compound 42, 9-Hexyl-2-{2-[hydroxy-adamantan-2-yl]ethyn-1-yl}adenine]",Ki,[5],< 1000 nM
"CC(C)Cn1cnc2c(N)nc(C#CC3(O)C4CC5CC(C4)CC3C5)nc21 (stereo not shown) [Compound 44, 2-{2-[Hydroxy-adamantan-2-yl]ethyn-1-yl}-9-isobutyl-adenine]",Ki,[5],< 500 nM
"Nc1nc(C#CC2(O)C3CC4CC(C3)CC2C4)nc2c1ncn2CC1CC1 (stereo not shown) [Compound 45, 9-Cyclopropylmethyl-2-{2-[hydroxy-adamantan-2-yl]ethyn-1-yl}adenine]",Ki,[5],< 100 nM
"Nc1nc(C#CC2(O)C3CC4CC(C3)CC2C4)nc2c1ncn2CC1CCC1 (stereo not shown) [Compound 46, 9-Cyclobutylmethyl-2-{2-[hydroxy-adamantan-2-yl]ethyn-1-yl}adenine]",Ki,[5],< 100 nM
"Nc1nc(C#CC2(O)C3CC4CC(C3)CC2C4)nc2c1ncn2CC1CCCC1 (stereo not shown) [Compound 47, 9-Cyclopentylmethyl-2-{2-[hydroxy-adamantan-2-yl]ethyn-1-yl}adenine]",Ki,[5],< 500 nM
"Nc1nc(C#CC2(O)C3CC4CC(C3)CC2C4)nc2c1ncn2C1CCC1 (stereo not shown) [Compound 49, 9-Cyclobutyl-2-{2-[hydroxy-adamantan-2-yl]ethyn-1-yl}adenine]",Ki,[5],< 100 nM
Nc1nc(C#CC2(O)C3CC4CC(C3)CC2C4)nc2c1ncn2C1CCCC1 (stereo not shown) [Compound 50],Ki,[1],> 325 nM
same,"selectivity ratio vs. the A2AAR, A1AR",[1],> 27
same,Ki,[2],12 nM
same,"displacement of radioligand, A2BAR",[3],40%
same,"displacement of radioligand, A3AR",[4],40%
same,Ki,[5],< 100 nM
C#CCn1cnc2c(N)nc(C#CC3(O)C4CC5CC(C4)CC3C5)nc21 (stereo not shown) [Compound 51],Ki,[1],25 nM
same,"selectivity ratio vs. the A2AAR, A1AR",[1],16
same,Ki,[2],1.6 nM
same,Ki,[3],155 nM
same,"selectivity ratio vs. the A2AAR, A2BAR",[3],97
same,Ki,[4],> 650 nM
same,"selectivity ratio vs. the A2AAR, A3AR",[4],> 400
same,Ki,[5],< 100 nM
"Nc1nc(C#CC2(O)C3CC4CC(C3)CC2C4)nc2c1ncn2CCO (stereo not shown) [Compound 52, 2-{2-[Hydroxy-adamantan-2-yl]ethyn-1-yl}-9-(2-hydroxyethyl)adenine]",Ki,[5],< 500 nM
Nc1nc(C#CC2(O)C3CC4CC(C3)CC2C4)nc2c1ncn2CCCO (stereo not shown) [Compound 53],Ki,[5],< 500 nM
"C#CCCn1cnc2c(N)nc(C#CC3(O)C4CC5CC(C4)CC3C5)nc21 (stereo not shown) [Compound 62, 9-(But-3-ynyl)-2-{2-[hydroxy-adamantan-2-yl]ethyn-1-yl}adenine]",Ki,[5],< 100 nM
"C#CCn1cnc2c(N)nc(C#CCC3CCN(C(=O)OC)CC3)nc21 [Compound 63, 2-{3-[1-(Methoxycarbanoyl)piperidin-4-yl]propyn-1-yl}-9-propargyladenine]",Ki,[5],< 100 nM
CCn1c(=O)c2c(nc(/C=C/c3ccc(OC)c(OC)c3)n2C)n(CC)c1=O [KW6002],toxicity,[11],long-term toxicity
same,tolerability in clinical trial,[12],well tolerated
Nc1nc2c(cnn2CCc2ccccc2)c2nc(-c3ccco3)nn12 [SCH58261],solubility,[13],very poorly soluble
Nc1nc(NCCc2ccc(O)cc2)nc2nc(-c3ccco3)nn12 [ZM241385],bioavailability,[14],poor bioavailability
